In data set [1] the test system is MAO-A. On the set-up: method as in PMID 16356714, PMID 20708306, PMID 19043245, PMID 25707011, PMID 25922182. The following applies: lead structure of Chart 1, earlier series of the group ref 21–25; cited from earlier work.
For data set [2], the target named is T1, membrane-bound human MAO-A (Homo sapiens, UniProt P21397).
T1 sequence (P21397 1-527): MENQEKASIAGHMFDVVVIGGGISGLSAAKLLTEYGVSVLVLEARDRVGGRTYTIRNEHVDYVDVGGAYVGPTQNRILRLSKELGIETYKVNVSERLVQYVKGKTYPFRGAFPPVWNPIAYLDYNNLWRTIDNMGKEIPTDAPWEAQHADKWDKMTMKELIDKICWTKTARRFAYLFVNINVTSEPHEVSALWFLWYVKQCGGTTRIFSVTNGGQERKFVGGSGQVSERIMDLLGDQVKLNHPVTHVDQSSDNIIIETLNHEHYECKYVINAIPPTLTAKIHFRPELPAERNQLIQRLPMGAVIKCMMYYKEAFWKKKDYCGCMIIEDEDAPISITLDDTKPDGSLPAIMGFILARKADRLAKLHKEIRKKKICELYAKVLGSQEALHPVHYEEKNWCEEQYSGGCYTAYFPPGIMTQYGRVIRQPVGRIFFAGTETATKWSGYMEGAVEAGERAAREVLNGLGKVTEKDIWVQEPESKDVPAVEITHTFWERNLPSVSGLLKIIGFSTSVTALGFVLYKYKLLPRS
The data set is described as follows: MAO-A inhibition, H2O2/horseradish peroxidase coupled fluorescence assay with tyramine. As to conditions: for inhibition at 10 µM: read-out: % inhibition at 10 μM hMAO-A; for IC50 (μM) hMAO-A / IC50: tyramine at 2 × KM, seven concentrations 0.01–300 µM, ± s.d., two independent experiments; for IC50: read-out: IC50 (μM) hMAO-A; for selectivity MAO-A versus MAO-B: from IC50 values on MAO-A and MAO-B; for inhibition of MAO-A compared with MAO-B in the screen: screen at 10 µM. The format is biochemical. As for the experimental part:
(§1) Incomplete inhibition of activity could arise either from indirect effects on these enzymes or from the compounds acting as substrates at the highest concentrations.
(§2) The activity of MAO was determined using the coupled assay method of [41, 42] in which the product, H2O2, acts with horseradish peroxidase to convert 10-acetyl-3,7-dihydroxyphenoxazine to the fluorescent resorufin. […] The data were analysed using the equation for a three-parameter curve in Graphpad PRISM v. 4, and the % inhibition calculated from the top and bottom of the resulting curve.

In data set [3] the target is T2, membrane-bound human MAO-B (Homo sapiens, UniProt P27338).
T2 sequence (P27338 1-520): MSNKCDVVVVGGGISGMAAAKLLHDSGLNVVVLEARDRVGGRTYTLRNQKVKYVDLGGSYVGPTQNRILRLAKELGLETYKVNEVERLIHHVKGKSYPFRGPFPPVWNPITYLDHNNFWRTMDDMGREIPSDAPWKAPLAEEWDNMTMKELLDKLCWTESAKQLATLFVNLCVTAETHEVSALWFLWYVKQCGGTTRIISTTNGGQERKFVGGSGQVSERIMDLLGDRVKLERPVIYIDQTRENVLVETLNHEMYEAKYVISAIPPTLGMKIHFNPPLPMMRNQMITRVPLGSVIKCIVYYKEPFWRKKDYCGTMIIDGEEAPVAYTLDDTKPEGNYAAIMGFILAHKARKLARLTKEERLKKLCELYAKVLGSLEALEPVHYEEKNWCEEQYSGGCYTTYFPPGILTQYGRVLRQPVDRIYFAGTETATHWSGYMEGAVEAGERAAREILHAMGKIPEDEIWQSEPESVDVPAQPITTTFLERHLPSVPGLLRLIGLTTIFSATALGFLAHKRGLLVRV
The data set is described as follows: MAO-B inhibition, H2O2/horseradish peroxidase coupled fluorescence assay with tyramine. The format is biochemical. As to conditions: for inhibition at 10 µM: read-out: % inhibition at 10 μM hMAO-B, 10 μM compound, tyramine 0.32 mM (2 × KM), average of two independent experiments; for maximum inhibition (%) hMAO-B: from dose–response curve, in parentheses after IC50, given if less than 95%; for IC50 (μM) hMAO-B / IC50: tyramine at 2 × KM, seven concentrations 0.01–300 µM, ± s.d., two independent experiments; for IC50: read-out: IC50 (μM) hMAO-B. The method, then: as §1, §2

For data set [4], the target named is T3, MAO-A (Homo sapiens, UniProt P21397).
T3 sequence (P21397 1-527): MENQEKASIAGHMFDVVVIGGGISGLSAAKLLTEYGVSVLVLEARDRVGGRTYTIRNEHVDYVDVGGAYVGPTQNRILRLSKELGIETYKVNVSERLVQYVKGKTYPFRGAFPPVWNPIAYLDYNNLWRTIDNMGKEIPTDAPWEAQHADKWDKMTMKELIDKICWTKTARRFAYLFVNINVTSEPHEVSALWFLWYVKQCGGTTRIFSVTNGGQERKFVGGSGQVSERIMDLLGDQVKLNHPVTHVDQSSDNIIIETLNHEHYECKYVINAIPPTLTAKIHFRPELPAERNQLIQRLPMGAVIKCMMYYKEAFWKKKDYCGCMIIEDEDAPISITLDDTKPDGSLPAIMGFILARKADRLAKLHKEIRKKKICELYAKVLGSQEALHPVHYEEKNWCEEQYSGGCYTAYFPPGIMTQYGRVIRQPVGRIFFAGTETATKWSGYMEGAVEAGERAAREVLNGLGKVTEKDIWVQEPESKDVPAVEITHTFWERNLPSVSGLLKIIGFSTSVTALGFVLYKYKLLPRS
The data set is described as follows: Oxidation of compound by MAO-A in the standard coupled assay in the absence of tyramine. It is filed as biochemical. The method, then: (§3) Compound 6 in the screening assay with 10 µM inhibitor gave an increased rate of appearance of fluorescence indicating faster production of the product H2O2 (not the slower rate observed with other compounds that inhibit MAO activity).
(§4) Figure 3. Oxidation of 6 (squares) but not 12d (triangles) by MAO-A. The concentration of compound was varied in the standard assay coupled to the production of H2O2 but in the absence of the substrate tyramine.
(§5) The activity of MAO was determined using the coupled assay method of [41, 42] in which the product, H2O2, acts with horseradish peroxidase to convert 10-acetyl-3,7-dihydroxyphenoxazine to the fluorescent resorufin. […] For compounds that gave more than 30% inhibition, the IC50 was determined using seven concentrations of each compound (0.01–300 μM) with substrate at 2 × KM. […] The data were analysed using the equation for a three-parameter curve in Graphpad PRISM v. 4, and the % inhibition calculated from the top and bottom of the resulting curve.

Substrate in data set [5]: COc1cc(/C=N/NC(=O)CNC(=O)c2cc(Cl)ccc2/N=C/c2ccccc2)ccc1O
The data set is described as above. It is filed as biochemical, human. As to conditions: other: compound as substrate. The method, then: as §3, §4, §5

The mark [6] stands for this setting: 10 μM compound, tyramine 0.8 mM (2 × KM), average of two independent experiments.

Values joined by “and” are separate entries in the source; they are usually repeats but may differ in a detail not shown here. Identical values can stand only once. “Also recorded” adds a separate entry of the source. Marks after values point to notes of the source that are not given here.

Consider 11 molecules from publication PMC7211837, “Design, synthesis, molecular modelling and in vitro screening of monoamine oxidase inhibitory activities of novel quinazolyl hydrazine derivatives” (Royal Society Open Science, 2020).

With `C/C(=N/NC(=O)Cn1c(=O)c(Cc2ccccc2)nc2ccccc21)c1ccc(O)cc1` [lead structure], the “MAO-A activity PIC50” value in the data set on MAO-A [1] is on record as 7.8.
One may read the melting point as the temperature of the solid-liquid transition. A word on the inhibition: it is the relative decrease from the control value, in per cent. For `COc1ccc(C2Nc3ccc(Cl)cc3C(=O)N2CC(=O)NN)cc1` (centres unmarked) [4c, 2-(6-Chloro-2-(4-methoxyphenyl)-4-oxo-1,2-dihydroquiazolin-3(4H)-yl)acetohydrazide], the melting point lay within 159 to 160 °C. Also, in data set [2] (setting [6]), the inhibition at 10 µM amounted to 0%. Besides, the inhibition at 10 µM in data set [3] amounted to 27%.
The corresponding values for `COC(=O)CN1C(=O)c2cc(Cl)ccc2NC1c1ccccc1OC` (centres unmarked) [3d, Methyl 2-(6-chloro-2-(2-methoxyphenyl)-4-oxo–1,2-dihydroquinazolin-3(4H)-yl)acetate] are 152 to 154 °C, 0% and 27%.
Consider `COC(=O)CN1C(=O)c2cc(Cl)ccc2NC1c1ccc(OC)cc1` (centres unmarked) [3c, Methyl 2-(6-chloro-2-(4-methoxyphenyl)-4-oxo–1,2-dihydroquinazolin-3(4H)-yl)acetate], for which the melting point was in the range of 148 to 150 °C. The inhibition at 10 µM in data set [2] (setting [6]) was -3%. Moreover, in data set [3], the inhibition at 10 µM was determined as 10%.
By IC50 is commonly meant the concentration that inhibits the measured activity by half. The molecule `O=C(CN1C(=O)c2ccccc2NC1c1ccccc1)NN=Cc1ccccc1` (centres unmarked) [5a, N'-Benzylidene-2-(4-oxo-2-phenyl-1,2-dihydroquinazolin-3(4H)-yl)acetohydrazide] yielded a melting point of 223 to 225 °C. The inhibition at 10 µM in data set [2] (setting [6]) came to 19%. In addition, in data set [2], the “IC50 (μM) hMAO-A” value was “micromolar potency”; the half-maximal inhibitory concentration (IC50) was 4.4 µM and 6 µM and 6.2 µM. Further, in data set [3], the “maximum inhibition (%) hMAO-B” value is listed as “full inhibition”; the inhibition at 10 µM came to 55%; the “IC50 (μM) hMAO-B” value is reported as “micromolar affinity”; the IC50 was < 10 µM and 10 µM.
`COc1cc(C=NNC(=O)CN2C(=O)c3ccccc3NC2c2ccccc2)ccc1O` (centres unmarked) [5d, N'-(4-Hydroxy-3-methoxybenzylidene)-2-(4-oxo-2-phenyl-1,2-dihydroquinazolin-3(4H)yl)acetohydrazide]: the melting point lay in the range of 252 to 255 °C. Moreover, in data set [2], the “selectivity MAO-A versus MAO-B” value is on record as “threefold selective for MAO-A”; the “inhibition of MAO-A compared with MAO-B in the screen” value was “equal inhibition of MAO-A and MAO-B; also recorded: equally inhibited”; the “IC50 (μM) hMAO-A” value is listed as “micromolar potency”; the IC50 was determined as 0.27 ± 0.06 µM. For the same molecule, the inhibition at 10 µM in data set [2] (setting [6]) came out at 71%. In data set [3], the “maximum inhibition (%) hMAO-B” value was “full inhibition”, the inhibition at 10 µM amounted to 70%, the “IC50 (μM) hMAO-B” value is “micromolar affinity” and the IC50 was determined as 0.75 ± 0.18 µM.
Molecule `COC(=O)CN1C(=O)c2cc(Cl)ccc2NC1c1ccccc1` (centres unmarked) [3b, Methyl-2-(6-chloro-4-oxo-2-phenyl-1,2-dihydroquinazolin-3(4H)-yl)acetate] had a melting point of 162 to 163 °C. The inhibition at 10 µM in data set [2] (setting [6]) came out at 10%. Besides, the inhibition at 10 µM in data set [3] is 34%.
In turn, `COc1cc(/C=N/NC(=O)CNC(=O)c2cc(Cl)ccc2/N=C/c2ccccc2)ccc1O` [compound 6, 2-(((E)-benzylidene)amino)-5-chloro-N-(2-(2-((E)-4-hydroxy-3-methoxybenzylidene)hydrazinyl)-2-oxoethyl)benzamide] returned a melting point of 257 to 259 °C. The “H2O2 production / oxidation by MAO-A in the absence of the normal substrate” value on MAO-A [4] (absence of tyramine) is “gave a measurable rate of H2O2 production”. Moreover, the “Vmax for oxidation by MAO-A as % of the Vmax for tyramine” value on MAO-A [4] (same conditions, tyramine run in parallel) is on record as 77%. For the same molecule, in data set [2] (setting [6]), the “% inhibition at 10 μM hMAO-A” value was “none”. In addition, the “IC50 (μM) hMAO-A” value in data set [2] is on record as “(rate increases)^c”. Further, in data set [3], the inhibition at 10 µM turned out to be 12% and the half-inhibitory concentration (IC50) was determined as 9 ± 2.3 µM.
Turning to `Cc1nc2ccccc2c(=O)n1CC(=O)NN=Cc1ccccc1` [12a, N'-Benzylidene-2-(2-methyl-4-oxoquinazolin-3(4H)-yl)acetohydrazide], the melting point lay within 242 to 245 °C. Further, the inhibition at 10 µM in data set [2] (setting [6]) came to 6%. For the same molecule, the inhibition at 10 µM in data set [3] was determined as 26%.
Molecule `COc1cc(C=NNC(=O)CN2C(=O)c3cc(Cl)ccc3NC2c2ccccc2)ccc1O` (centres unmarked) [5h, 2-(6-Chloro-4-oxo-2-phenyl-1,4-dihydroquinazolin-3(2H)-yl)-N'-(4-hydroxy-3-methoxybenzylidene)-acetohydrazide] came in with a melting point of 240 to 242 °C. For the same molecule, the “mechanism of inhibition of MAO-A” value in data set [2] (30 min preincubation, dilution ×100, increasing substrate concentration) is given as “competitive inhibition”. Further, in data set [2], the “selectivity MAO-A versus MAO-B” value is given as “non-selective”; the “inhibition of MAO-A compared with MAO-B in the screen” value was “equal inhibition of MAO-A and MAO-B; also recorded: equally inhibited”; the “IC50 (μM) hMAO-A” value was “micromolar potency”; the IC50 came to 0.31 ± 0.11 µM. In addition, the inhibition at 10 µM in data set [2] (setting [6]) is 70%. Moreover, in data set [3], the “maximum inhibition (%) hMAO-B” value is listed as “full inhibition”, the inhibition at 10 µM was 72%, the “IC50 (μM) hMAO-B” value is given as “micromolar affinity” and the IC50 is 0.44 ± 0.1 µM.

B1: MAO-A (Homo sapiens) (protein)
chain: MENQEKASIAGHMFDVVVIGGGISGLSAAKLLTEYGVSVLVLEARDRVGGRTYTIRNEHVDYVDVGGAYVGPTQNRILRLSKELGIETYKVNVSERLVQYVKGKTYPFRGAFPPVWNPIAYLDYNNLWRTIDNMGKEIPTDAPWEAQHADKWDKMTMKELIDKICWTKTARRFAYLFVNINVTSEPHEVSALWFLWYVKQCGGTTRIFSVTNGGQERKFVGGSGQVSERIMDLLGDQVKLNHPVTHVDQSSDNIIIETLNHEHYECKYVINAIPPTLTAKIHFRPELPAERNQLIQRLPMGAVIKCMMYYKEAFWKKKDYCGCMIIEDEDAPISITLDDTKPDGSLPAIMGFILARKADRLAKLHKEIRKKKICELYAKVLGSQEALHPVHYEEKNWCEEQYSGGCYTAYFPPGIMTQYGRVIRQPVGRIFFAGTETATKWSGYMEGAVEAGERAAREVLNGLGKVTEKDIWVQEPESKDVPAVEITHTFWERNLPSVSGLLKIIGFSTSVTALGFVLYKYKLLPRS
What is called Km is the substrate concentration at which the rate is half of its maximum. Consider B1, for which the Km in data set [5] stood at 35.5 µM.
